Assay results taken from US7045544B2, “Substituted 2,5-diamidoindoles as ECE inhibitors for the treatment of cardiovascular diseases” (Bayer HealthCare AG, priority 2001, dated 2006).
Counter-ions that a name gives are not always drawn.

biological target: T1, endothelin-converting enzyme (ECE) (Homo sapiens, UniProt P42892); test: cell-based; settings: ECE activity of endothelial cell line EA.hy926; 1–100 nM bET; 100 μM thiophane added; ET-1 formed measured by EIA
T1 construct: The ECE activity for identifying the substances described herein originates from the endothelial cell line EA.hy926; endogenous in cells; host or cells: EA.hy926 endothelial cells (intact, confluent)
T1 sequence (P42892 1-770): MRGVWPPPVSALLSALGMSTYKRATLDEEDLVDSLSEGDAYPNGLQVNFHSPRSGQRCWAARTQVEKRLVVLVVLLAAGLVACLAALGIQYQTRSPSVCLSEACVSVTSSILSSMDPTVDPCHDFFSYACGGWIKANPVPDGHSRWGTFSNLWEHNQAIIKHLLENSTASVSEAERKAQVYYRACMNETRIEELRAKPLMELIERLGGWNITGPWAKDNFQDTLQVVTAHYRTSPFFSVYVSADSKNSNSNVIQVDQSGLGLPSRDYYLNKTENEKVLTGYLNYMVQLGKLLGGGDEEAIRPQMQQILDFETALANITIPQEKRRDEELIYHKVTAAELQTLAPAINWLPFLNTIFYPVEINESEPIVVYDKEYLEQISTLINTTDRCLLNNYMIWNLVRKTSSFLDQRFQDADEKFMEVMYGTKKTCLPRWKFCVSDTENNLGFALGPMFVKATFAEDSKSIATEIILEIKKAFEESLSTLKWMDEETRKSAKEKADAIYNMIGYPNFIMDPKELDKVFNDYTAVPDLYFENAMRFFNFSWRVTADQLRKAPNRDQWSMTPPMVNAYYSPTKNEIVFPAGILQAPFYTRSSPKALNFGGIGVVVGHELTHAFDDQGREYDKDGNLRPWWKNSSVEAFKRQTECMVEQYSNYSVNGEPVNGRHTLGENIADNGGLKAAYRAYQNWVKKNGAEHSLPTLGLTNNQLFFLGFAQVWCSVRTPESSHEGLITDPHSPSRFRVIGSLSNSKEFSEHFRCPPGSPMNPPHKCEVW
Procedure: Functional in Vitro Assay
The ECE activity for identifying the substances described herein originates from the endothelial cell line EA.hy926. The ECE-inhibitory action of the compounds in this invention is tested as described below:
For 12–48 h, EA.hy296 cells are cultivated in a 384-well cell culture dish in 80 μl of cell culture medium (DMEM supplemented with 10% FCS, 2 mM glutamine, 10 mM HEPES, 1 mM sodium pyruvate and 1×HAT (Gibco 21060-017)) in a humid atmosphere (100% atmospheric humidity) enriched with 7% v/v of CO2 at 37° C. After confluence has been reached, and immediately prior to the actual beginning of measurement, the supernatant of the cell culture is pipetted off and replaced by 40 or 80 μl of the same medium to which 1–100 nM bET has been added. After 30–120 minutes under otherwise identical cell culture conditions, the supernatant is pipetted off. Cellular components are removed by centrifugation in a customary bench-top centrifuge (10 000 rpm; 2 minutes). The resulting clear supernatant is either used directly as described below or shock-frozen in dry ice and then stored at −20° C. Directly removed supernatant or thawed, stored supernatant are measured in an enzyme immunoassay (EIA).
To determine the inhibitory activity of ECE inhibitors, EA.hy296 cells are incubated with the test substance in a concentration between 0.001–5 μM under the conditions described above. To minimize possible interference by neutral endopeptidase (NEP24.11), 100 μM of thiophane are added during the bET incubation of the EA.hy926 cells.
The proportion of the ET-1 formed by ECE cleavage is measured as follows: depending on the amount of converted bET, the samples are, prior to use, diluted 2–100-fold with EIA. An appropriate dilution of the cell supernatant is incubated in 100 μl portions for 14–18 hours in the sample tubes of the EIA kit Biomedica B1-20052.

Compared with `CC(C)(C)CC(=O)Nc1ccc2c(c1)cc(C(=O)Nc1ccc(N)cc1)n2Cc1ccccc1F` [Example 57, N-(4-Aminophenyl)-5-[(3,3-dimethylbutanoyl)amino]-1-(2-fluorobenzyl)-1H-indole-2-carboxamide hydrochloride], `CC(=O)Nc1ccc(NC(=O)c2cc3cc(NC(=O)CC(C)(C)C)ccc3n2Cc2ccccc2F)cc1` [Example 60] is 2.1-fold lower in IC50: 1500 nM for the first, 700 nM for the second.

In the case of `CC(C)(C)CC(=O)Nc1ccc2c(c1)cc(C(=O)Nc1ccc(NS(C)(=O)=O)cc1)n2Cc1ccccc1F` [Example 58], the IC50 is reported as 1600 nM.
